Experimental data: patent US12448369B2 (Edgewise Therapeutics, Inc., priority 2023, dated 2025)

system: Rabbit Psoas myofibrils (skeletal myosin ATPase); assay: Myofibril ATPase assay, rabbit psoas (skeletal) myofibrils; assay type: biochemical; details: Y75 value (no ‡ mark); rabbit psoas myofibrils
Procedure, shortened: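 Rabbit psoas skeletal myofibrils in PIPES/CaCl2/EGTA pCa buffer, pH 7.0. ATPase rate followed by PK-LDH-coupled NADH loss at 340 nm, read every 1.5–2 min for 75 min. Slopes normalized to vehicle (100%) and fitted to a 4-parameter logistic; values are Y75 (25% inhibition) or Y125 (25% activation) concentrations.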

SMILES | Skeletal EC25 [µM]
Cc1c(CC(=O)N[C@@H](C)c2cnc(C#N)cn2)c(=O)[nH]c2cc(F)c(F)cc12 [compound 1103] | 0.06
Cc1c(O)ccc2[nH]c(=O)c(CC(=O)N[C@@H](C)c3ncc(F)cc3F)cc12 (single isomer, unassigned) [compound 78] | 6.60
Cc1c(F)ccc2[nH]c(=O)c(C(F)(F)C(=O)N[C@H](C)c3ncc(C#N)cn3)c(C)c12 (single isomer, unassigned) [compound 4831] | 0.06
COc1ccc2[nH]c(=O)c(CC(=O)N[C@@H](C)c3ccc(F)cc3F)cc2c1C [compound 92] | 2.83
Cc1c(CC(=O)N[C@@H](C)c2ncc(F)cc2F)c(=O)[nH]c2ccc(F)c(C(F)(F)F)c12 [compound 10] | 0.05
C[C@@H](NC(=O)Cc1c(O)c2cc(F)c(F)cc2[nH]c1=O)c1ccc(C#N)cc1F [compound 1086] | 100.00
Cc1c(CC(=O)N[C@@H](C)c2ncc(C#N)cc2F)c(=O)[nH]c2cc(F)c(F)cc12 [compound 1105] | 1.36
Cc1ccncc1[C@@H](C)NC(=O)Cc1c(C)c2cc(F)ccc2[nH]c1=O [compound 1048] | 2.2
C[C@H](NC(=O)Cc1c(C2CC2)c2c(F)c(F)ccc2[nH]c1=O)c1ccc(C#N)nn1 (single isomer, unassigned) [compound 2066] | 0.15
Cc1c(CC(=O)N[C@H](C)c2ncc(C#N)cn2)c(=O)[nH]c2cccc(F)c12 (single isomer, unassigned) [compound 2041] | 100.00
C[C@H](NC(=O)C(F)(F)c1cc2c(F)c(F)ccc2[nH]c1=O)c1ncc(C#N)cn1 (single isomer, unassigned) [compound 2546] | 0.19
O=C(Cc1cc2cc(F)ccc2[nH]c1=O)N1CC[C@H]2C[C@@H]1c1ccccc12 (single isomer, unassigned) [compound 4502] | 0.50
C[C@H](NC(=O)Cc1c(C(F)(F)F)c2ccccc2[nH]c1=O)c1ccc(F)cc1F [compound 129] | 0.04
Cc1c(C(F)(F)C(=O)N[C@@H](C)c2ccc(F)cc2F)c(=O)[nH]c2ccc(F)cc12 [compound 4816] | 0.15
C[C@H](NC(=O)Cc1cc2c(Cl)c(O)ccc2[nH]c1=O)c1ccc(F)cc1F [compound 91] | 3.55
Cc1c(C2(C(=O)N[C@@H](C)c3ncc(C#N)cc3F)CC2)c(=O)[nH]c2cccc(C#N)c12 (single isomer, unassigned) [compound 2542] | 0.32
Cc1c(CC(=O)N[C@@H](C)c2ccc(F)cc2F)c(=O)[nH]c2ccc(F)c(Cl)c12 [compound 85] | 0.02
Cc1c(CC(=O)N[C@H](C)c2ncc(C#N)cn2)c(=O)[nH]c2ccc(F)c(Cl)c12 (single isomer, unassigned) [compound 2055] | 0.11

system: Porcine atria myofibrils (atrial myosin ATPase); assay: Myofibril ATPase assay, porcine atria myofibrils; assay type: biochemical; details: Y75 value (no ‡ mark); porcine atria myofibrils
Procedure, shortened: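 Coupled PK-LDH reaction links ADP from myosin ATPase to NADH loss, read at 340 nm every 1.5-2 min for 75 min. Slopes (mAU/min) normalized to vehicle-only wells (100%) and fit to a 4-parameter logistic; Y75 is the concentration cutting activity by 25%, Y125 is reported for activators.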

SMILES | Atrial EC25 [µM]
Cc1c(CC(=O)N[C@@H](C)c2cnc(C#N)cn2)c(=O)[nH]c2cc(F)c(F)cc12 [compound 1103] | 0.40
Cc1c(O)ccc2[nH]c(=O)c(CC(=O)N[C@@H](C)c3ncc(F)cc3F)cc12 (single isomer, unassigned) [compound 78] | 7.08
Cc1c(F)ccc2[nH]c(=O)c(C(F)(F)C(=O)N[C@H](C)c3ncc(C#N)cn3)c(C)c12 (single isomer, unassigned) [compound 4831] | 0.12
COc1ccc2[nH]c(=O)c(CC(=O)N[C@@H](C)c3ccc(F)cc3F)cc2c1C [compound 92] | 29.94
Cc1c(CC(=O)N[C@@H](C)c2ncc(F)cc2F)c(=O)[nH]c2ccc(F)c(C(F)(F)F)c12 [compound 10] | 0.16
C[C@@H](NC(=O)Cc1c(O)c2cc(F)c(F)cc2[nH]c1=O)c1ccc(C#N)cc1F [compound 1086] | 1.94
Cc1c(CC(=O)N[C@@H](C)c2ncc(C#N)cc2F)c(=O)[nH]c2cc(F)c(F)cc12 [compound 1105] | 100.00
Cc1ccncc1[C@@H](C)NC(=O)Cc1c(C)c2cc(F)ccc2[nH]c1=O [compound 1048] | 0.29
C[C@H](NC(=O)Cc1c(C2CC2)c2c(F)c(F)ccc2[nH]c1=O)c1ccc(C#N)nn1 (single isomer, unassigned) [compound 2066] | 1.06
Cc1c(CC(=O)N[C@H](C)c2ncc(C#N)cn2)c(=O)[nH]c2cccc(F)c12 (single isomer, unassigned) [compound 2041] | 1.18
C[C@H](NC(=O)C(F)(F)c1cc2c(F)c(F)ccc2[nH]c1=O)c1ncc(C#N)cn1 (single isomer, unassigned) [compound 2546] | 0.20
O=C(Cc1cc2cc(F)ccc2[nH]c1=O)N1CC[C@H]2C[C@@H]1c1ccccc12 (single isomer, unassigned) [compound 4502] | 1.28
C[C@H](NC(=O)Cc1c(C(F)(F)F)c2ccccc2[nH]c1=O)c1ccc(F)cc1F [compound 129] | 0.21
Cc1c(C(F)(F)C(=O)N[C@@H](C)c2ccc(F)cc2F)c(=O)[nH]c2ccc(F)cc12 [compound 4816] | 0.15
C[C@H](NC(=O)Cc1cc2c(Cl)c(O)ccc2[nH]c1=O)c1ccc(F)cc1F [compound 91] | 1.38
Cc1c(C2(C(=O)N[C@@H](C)c3ncc(C#N)cc3F)CC2)c(=O)[nH]c2cccc(C#N)c12 (single isomer, unassigned) [compound 2542] | 0.24
Cc1c(CC(=O)N[C@@H](C)c2ccc(F)cc2F)c(=O)[nH]c2ccc(F)c(Cl)c12 [compound 85] | 0.03
Cc1c(CC(=O)N[C@H](C)c2ncc(C#N)cn2)c(=O)[nH]c2ccc(F)c(Cl)c12 (single isomer, unassigned) [compound 2055] | 0.06

target: T1, Porcine ventricle myofibrils (ventricular myosin ATPase) (Sus scrofa, UniProt P79293); assay: Myofibril ATPase assay, porcine ventricle myofibrils; assay type: biochemical, porcine (Yucatan minipigs); details: Y75 value (no ‡ mark); porcine ventricle myofibrils
T1 construct: Myofibrils from porcine cardiac muscle was isolated from the left ventricle of Yucatan minipigs; tissue Exemplar Genetics; host or cells: left ventricle of Yucatan minipigs, myofibrils prepared in house
T1 sequence (P79293 whole entry): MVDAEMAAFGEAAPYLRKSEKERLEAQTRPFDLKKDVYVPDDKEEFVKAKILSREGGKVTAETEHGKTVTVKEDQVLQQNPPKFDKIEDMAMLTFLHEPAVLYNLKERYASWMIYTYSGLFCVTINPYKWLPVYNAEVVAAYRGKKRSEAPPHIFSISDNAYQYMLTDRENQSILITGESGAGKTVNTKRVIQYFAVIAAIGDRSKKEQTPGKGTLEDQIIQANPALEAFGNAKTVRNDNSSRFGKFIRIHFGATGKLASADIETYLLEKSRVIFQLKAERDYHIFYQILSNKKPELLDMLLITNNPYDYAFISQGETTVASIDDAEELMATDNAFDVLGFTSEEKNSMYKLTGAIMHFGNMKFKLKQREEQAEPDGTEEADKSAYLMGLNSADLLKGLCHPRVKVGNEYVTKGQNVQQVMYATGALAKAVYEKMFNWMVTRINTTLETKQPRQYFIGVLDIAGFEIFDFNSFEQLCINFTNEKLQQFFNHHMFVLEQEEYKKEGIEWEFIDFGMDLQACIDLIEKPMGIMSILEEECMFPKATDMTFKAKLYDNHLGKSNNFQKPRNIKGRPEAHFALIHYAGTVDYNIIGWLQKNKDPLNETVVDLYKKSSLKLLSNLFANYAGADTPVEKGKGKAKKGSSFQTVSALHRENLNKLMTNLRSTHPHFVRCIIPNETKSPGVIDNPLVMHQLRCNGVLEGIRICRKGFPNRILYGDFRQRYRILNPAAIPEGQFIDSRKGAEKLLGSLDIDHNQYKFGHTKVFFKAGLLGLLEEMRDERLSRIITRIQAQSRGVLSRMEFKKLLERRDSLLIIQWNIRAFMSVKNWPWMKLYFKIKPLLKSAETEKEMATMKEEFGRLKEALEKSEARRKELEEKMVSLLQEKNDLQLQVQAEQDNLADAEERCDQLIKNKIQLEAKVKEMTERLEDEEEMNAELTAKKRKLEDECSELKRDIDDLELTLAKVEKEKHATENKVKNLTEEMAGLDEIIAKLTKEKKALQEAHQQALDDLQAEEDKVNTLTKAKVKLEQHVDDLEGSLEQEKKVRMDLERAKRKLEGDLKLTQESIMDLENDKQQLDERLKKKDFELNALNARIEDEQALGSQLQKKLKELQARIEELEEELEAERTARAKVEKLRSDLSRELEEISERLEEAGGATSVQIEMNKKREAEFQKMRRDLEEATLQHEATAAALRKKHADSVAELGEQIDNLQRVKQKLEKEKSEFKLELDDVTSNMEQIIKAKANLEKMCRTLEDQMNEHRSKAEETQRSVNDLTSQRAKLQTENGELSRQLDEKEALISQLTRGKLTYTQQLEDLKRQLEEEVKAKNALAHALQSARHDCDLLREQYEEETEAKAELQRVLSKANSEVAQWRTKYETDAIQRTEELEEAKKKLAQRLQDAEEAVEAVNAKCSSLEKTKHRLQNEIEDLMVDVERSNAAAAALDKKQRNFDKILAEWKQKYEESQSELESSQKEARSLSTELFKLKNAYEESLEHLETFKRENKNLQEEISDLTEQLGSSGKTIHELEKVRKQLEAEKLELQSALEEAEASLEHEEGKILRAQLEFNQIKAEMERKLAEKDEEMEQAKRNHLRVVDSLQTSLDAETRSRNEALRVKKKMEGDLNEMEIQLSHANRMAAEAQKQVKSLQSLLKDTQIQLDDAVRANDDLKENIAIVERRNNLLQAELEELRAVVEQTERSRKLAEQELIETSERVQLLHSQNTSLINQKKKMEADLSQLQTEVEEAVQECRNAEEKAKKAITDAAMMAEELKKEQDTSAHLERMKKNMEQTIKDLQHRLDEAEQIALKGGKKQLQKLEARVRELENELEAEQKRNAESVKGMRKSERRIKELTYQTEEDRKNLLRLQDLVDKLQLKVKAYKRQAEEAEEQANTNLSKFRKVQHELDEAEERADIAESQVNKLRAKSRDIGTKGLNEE
Procedure, shortened: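 Left-ventricle myofibrils from Yucatan minipigs were tested with a PK/LDH-coupled system, following NADH loss at 340 nm every 1.5-2 min for 75 min. Slopes were normalized to vehicle wells and fit to a 4-parameter logistic model; values are Y75 (25% ATPase reduction) or Y125 concentrations.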

SMILES | Ventricular EC25 [µM]
Cc1c(CC(=O)N[C@@H](C)c2cnc(C#N)cn2)c(=O)[nH]c2cc(F)c(F)cc12 [compound 1103] | 1.07
Cc1c(O)ccc2[nH]c(=O)c(CC(=O)N[C@@H](C)c3ncc(F)cc3F)cc12 (single isomer, unassigned) [compound 78] | 100.00
Cc1c(F)ccc2[nH]c(=O)c(C(F)(F)C(=O)N[C@H](C)c3ncc(C#N)cn3)c(C)c12 (single isomer, unassigned) [compound 4831] | 0.39
COc1ccc2[nH]c(=O)c(CC(=O)N[C@@H](C)c3ccc(F)cc3F)cc2c1C [compound 92] | 100.00
Cc1c(CC(=O)N[C@@H](C)c2ncc(F)cc2F)c(=O)[nH]c2ccc(F)c(C(F)(F)F)c12 [compound 10] | 0.39
C[C@@H](NC(=O)Cc1c(O)c2cc(F)c(F)cc2[nH]c1=O)c1ccc(C#N)cc1F [compound 1086] | 100.00
Cc1c(CC(=O)N[C@@H](C)c2ncc(C#N)cc2F)c(=O)[nH]c2cc(F)c(F)cc12 [compound 1105] | 4.47
Cc1ccncc1[C@@H](C)NC(=O)Cc1c(C)c2cc(F)ccc2[nH]c1=O [compound 1048] | 1.73
C[C@H](NC(=O)Cc1c(C2CC2)c2c(F)c(F)ccc2[nH]c1=O)c1ccc(C#N)nn1 (single isomer, unassigned) [compound 2066] | 7.88
Cc1c(CC(=O)N[C@H](C)c2ncc(C#N)cn2)c(=O)[nH]c2cccc(F)c12 (single isomer, unassigned) [compound 2041] | 1.50
C[C@H](NC(=O)C(F)(F)c1cc2c(F)c(F)ccc2[nH]c1=O)c1ncc(C#N)cn1 (single isomer, unassigned) [compound 2546] | 1.23
O=C(Cc1cc2cc(F)ccc2[nH]c1=O)N1CC[C@H]2C[C@@H]1c1ccccc12 (single isomer, unassigned) [compound 4502] | 0.63
C[C@H](NC(=O)Cc1c(C(F)(F)F)c2ccccc2[nH]c1=O)c1ccc(F)cc1F [compound 129] | 0.75
Cc1c(C(F)(F)C(=O)N[C@@H](C)c2ccc(F)cc2F)c(=O)[nH]c2ccc(F)cc12 [compound 4816] | 0.26
C[C@H](NC(=O)Cc1cc2c(Cl)c(O)ccc2[nH]c1=O)c1ccc(F)cc1F [compound 91] | 100.00
Cc1c(C2(C(=O)N[C@@H](C)c3ncc(C#N)cc3F)CC2)c(=O)[nH]c2cccc(C#N)c12 (single isomer, unassigned) [compound 2542] | 0.40
Cc1c(CC(=O)N[C@@H](C)c2ccc(F)cc2F)c(=O)[nH]c2ccc(F)c(Cl)c12 [compound 85] | 0.07
Cc1c(CC(=O)N[C@H](C)c2ncc(C#N)cn2)c(=O)[nH]c2ccc(F)c(Cl)c12 (single isomer, unassigned) [compound 2055] | 0.26
